Source: US10131652B2, “Pyrimidinyloxy benzene derivatives as herbicides” (E. I. DU PONT DE NEMOURS AND COMPANY, priority 2014, dated 2018)

Experiments:
Format in all cases: in vivo
[1] = tested on: small-flower umbrella sedge (Cyperus difformis); test: Test C flooded paddy test plant response; conditions: Flood, 250 g ai/ha; scale of 0 to 100 where 0 is no effect and 100 is complete control; 13 to 15 days
Summary of the method: (§1)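 2-leaf plants; flood 3 cm, cpd into paddy water; greenhouse 13–15 d; visual score vs untreated, 0 = no effect, 100 = complete control; dash = no result.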

[2] = tested on: ducksalad (Heteranthera limosa); test: Test C flooded paddy test plant response; conditions: Flood, 250 g ai/ha; scale of 0 to 100 where 0 is no effect and 100 is complete control; 13 to 15 days
Summary of the method: as §1

rice (Oryza sativa) = test: Test C flooded paddy test plant response; conditions: Flood, 250 g ai/ha; scale of 0 to 100 where 0 is no effect and 100 is complete control; 13 to 15 days
Summary of the method: as §1

[3] = tested on: barnyardgrass (Echinochloa crus-galli); test: Test C flooded paddy test plant response; conditions: Flood, 250 g ai/ha; scale of 0 to 100 where 0 is no effect and 100 is complete control; 13 to 15 days
Summary of the method: as §1

kochia (Kochia scoparia) = test: Test B pre-/postemergence plant response
Excerpt: (§2) Seeds of plant species selected from bamyardgrass (Echinochloa crus-galli), kochia (Kochia scoparia), ragweed (common ragweed, Ambrosia elatior), Italian ryegrass (Lolium multiflorum), large (Lg) crabgrass (Digitaria sanguinalis), giant foxtail (Setaria faberii), momingglory (Ipomoea spp.), pigweed (Amaranthus retroflexus), velvetleaf (Abutilon theophrasti), wheat (Triticum aestivum), and corn (Zea mays) were planted into a blend of loam soil and sand and treated preemergence with a directed soil spray using test chemicals formulated in a non-phytotoxic solvent mixture which included a surfactant. At the same time, plants selected from these crop and weed species and also blackgrass (Alopecurus myosuroides), and galium (catchweed bedstraw, Galium aparine) were planted in pots containing the same blend of loam soil and sand and treated with postemergence applications of test chemicals formulated in the same manner. Plants ranged in height from 2 to 10 cm and were in the one- to two-leaf stage for the postemergence treatment. Treated plants and untreated controls were maintained in a greenhouse for approximately 10 days, after which time all treated plants were compared to untreated controls and visually evaluated for injury. Plant response ratings, summarized in Table B, are based on a 0 to 100 scale where 0 is no effect and 100 is complete control. A dash (-) response means no test result.

corn (Zea mays) = test: Test B pre-/postemergence plant response; conditions: 0 to 100 scale, 0 no effect, 100 complete control
Excerpt: as §2

[4] = tested on: ragweed (common ragweed, Ambrosia elatior); test: Test B pre-/postemergence plant response
Excerpt: as §2

[5] = tested on: pigweed (Amaranthus retroflexus); test: Test B pre-/postemergence plant response
Excerpt: as §2

[6] = tested on: giant foxtail (Setaria faberii); test: Test B pre-/postemergence plant response
Excerpt: as §2

[7] = tested on: Italian ryegrass (Lolium multiflorum); test: Test B pre-/postemergence plant response
Excerpt: as §2

[8] = tested on: barnyardgrass (Echinochloa crus-galli); test: Test B pre-/postemergence plant response
Excerpt: as §2

[9] = tested on: wheat (Triticum aestivum); test: Test B pre-/postemergence plant response; conditions: 0 to 100 scale, 0 no effect, 100 complete control
Excerpt: as §2

[10] = tested on: blackgrass (Alopecurus myosuroides); test: Test B postemergence plant response; conditions: 0 to 100 scale, 0 no effect, 100 complete control
Summary of the method: (§3)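 Visual injury rating, 0–100 (0 = no effect, 100 = complete control), vs untreated controls ~10 days after postemergence spray; greenhouse; potted loam soil/sand; plants 2–10 cm, 1–2 leaf stage.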

[11] = tested on: galium (catchweed bedstraw, Galium aparine); test: Test B postemergence plant response; conditions: 0 to 100 scale, 0 no effect, 100 complete control
Summary of the method: as §3

[12] = 31 g ai/ha, Postemergence, 0 to 100 scale, 0 no effect, 100 complete control
[13] = 31 g ai/ha, Preemergence, 0 to 100 scale where 0 is no effect and 100 is complete control
[14] = 125 g ai/ha, postemergence, 0 to 100 scale, 0 no effect, 100 complete control
[15] = Preemergence, 125 g ai/ha, 0 to 100 scale where 0 is no effect and 100 is complete control

Structure (SMILES)	Sedge, Umbrella plant response rating [1]	Ducksalad plant response rating [2]	Rice plant response rating (rice (Oryza sativa))	Barnyardgrass plant response rating [3]	Plant response rating, Kochia (kochia (Kochia scoparia); [12])	Plant response rating, Kochia (kochia (Kochia scoparia); [13])	Plant response rating, Kochia (kochia (Kochia scoparia); [14])	Plant response rating, Kochia (kochia (Kochia scoparia); [15])	Plant response rating, Corn (corn (Zea mays); 31 g ai/ha, Postemergence)	Plant response rating, Corn (corn (Zea mays); 125 g ai/ha, postemergence)	Plant response rating, Ragweed [4, 12]	Plant response rating, Ragweed [4, 13]	Plant response rating, Ragweed [4, 14]	Plant response rating, Pigweed [5, 12]	Plant response rating, Pigweed [5, 13]	Plant response rating, Pigweed [5, 14]	Plant response rating, Foxtail, Giant [6, 12]	Plant response rating, Foxtail, Giant [6, 13]	Plant response rating, Foxtail, Giant [6, 14]	Plant response rating, Foxtail, Giant [6, 15]	other results
N#Cc1cccc(Oc2ncc(Cl)cn2)c1-c1ccsc1 [Compound 112]	95	30	0	0	60	0	70	50	10	20	20	0	30	30	30	30	10	10	60	70	Plant response rating, Ryegrass, Italian [7, 12]: 0; Plant response rating, Ryegrass, Italian [7, 13]: 0; Plant response rating, Ryegrass, Italian [7, 14]: 0; Plant response rating, Barnyardgrass [8, 12]: 10; Plant response rating, Barnyardgrass [8, 13]: 10; Plant response rating, Barnyardgrass [8, 14]: 30; Plant response rating, Barnyardgrass [8, 15]: 30; Plant response rating, Wheat ([9]; 31 g ai/ha, Postemergence): 0; Plant response rating, Wheat ([9]; 125 g ai/ha, postemergence): 0; Plant response rating, Blackgrass ([10]; 31 g ai/ha, Postemergence): 0; Plant response rating, Blackgrass ([10]; 125 g ai/ha, postemergence): 20; Plant response rating, Galium ([11]; 31 g ai/ha, Postemergence): 30; Plant response rating, Galium ([11]; 125 g ai/ha, postemergence): 50
Fc1ccc(Oc2ncc(Cl)cn2)c(-c2cc(C(F)F)on2)c1Br [Compound 114]	75	75	15	0	70	20	90	20	30	50	0	0	20	100	70	100	20	10	60	30	Plant response rating, Ryegrass, Italian [7, 12]: 10; Plant response rating, Ryegrass, Italian [7, 13]: 0; Plant response rating, Ryegrass, Italian [7, 14]: 60; Plant response rating, Barnyardgrass [8, 12]: 10; Plant response rating, Barnyardgrass [8, 13]: 0; Plant response rating, Barnyardgrass [8, 14]: 20; Plant response rating, Barnyardgrass [8, 15]: 20; Plant response rating, Wheat ([9]; 31 g ai/ha, Postemergence): 10; Plant response rating, Wheat ([9]; 125 g ai/ha, postemergence): 20; Plant response rating, Blackgrass ([10]; 31 g ai/ha, Postemergence): 10; Plant response rating, Blackgrass ([10]; 125 g ai/ha, postemergence): 40; Plant response rating, Galium ([11]; 31 g ai/ha, Postemergence): 70; Plant response rating, Galium ([11]; 125 g ai/ha, postemergence): 100
Cn1cnc(-c2ccccc2Oc2ncc(Cl)cn2)n1 [Compound 115]	0	0	0	0	0	0	0	0	0	0	0	0	0	0	0	0	0	0	0	0	Plant response rating, Ryegrass, Italian [7, 12]: 0; Plant response rating, Ryegrass, Italian [7, 13]: 0; Plant response rating, Ryegrass, Italian [7, 14]: 0; Plant response rating, Barnyardgrass [8, 12]: 0; Plant response rating, Barnyardgrass [8, 13]: 0; Plant response rating, Barnyardgrass [8, 14]: 0; Plant response rating, Barnyardgrass [8, 15]: 0; Plant response rating, Wheat ([9]; 31 g ai/ha, Postemergence): 0; Plant response rating, Wheat ([9]; 125 g ai/ha, postemergence): 0; Plant response rating, Blackgrass ([10]; 31 g ai/ha, Postemergence): 0; Plant response rating, Blackgrass ([10]; 125 g ai/ha, postemergence): 0; Plant response rating, Galium ([11]; 31 g ai/ha, Postemergence): 0; Plant response rating, Galium ([11]; 125 g ai/ha, postemergence): 0
Cn1ncnc1-c1ccccc1Oc1ncc(Cl)cn1 [Compound 117]	0	0	0	0	0	0	0	0	0	0	0	0	0	0	0	0	0	0	0	0	Plant response rating, Ryegrass, Italian [7, 12]: 0; Plant response rating, Ryegrass, Italian [7, 13]: 0; Plant response rating, Ryegrass, Italian [7, 14]: 0; Plant response rating, Barnyardgrass [8, 12]: 0; Plant response rating, Barnyardgrass [8, 13]: 0; Plant response rating, Barnyardgrass [8, 14]: 0; Plant response rating, Barnyardgrass [8, 15]: 0; Plant response rating, Wheat ([9]; 31 g ai/ha, Postemergence): 0; Plant response rating, Wheat ([9]; 125 g ai/ha, postemergence): 0; Plant response rating, Blackgrass ([10]; 31 g ai/ha, Postemergence): 0; Plant response rating, Blackgrass ([10]; 125 g ai/ha, postemergence): 0; Plant response rating, Galium ([11]; 31 g ai/ha, Postemergence): 0; Plant response rating, Galium ([11]; 125 g ai/ha, postemergence): 0
Brc1cnc(Oc2ccccc2-c2cc(Br)no2)nc1 [Compound 119]	40	40	0	0	0	0	30	10	0	0	10	0	10	40	0	80	0	0	10	50	Plant response rating, Ryegrass, Italian [7, 12]: 0; Plant response rating, Ryegrass, Italian [7, 13]: 0; Plant response rating, Ryegrass, Italian [7, 14]: 0; Plant response rating, Barnyardgrass [8, 12]: 0; Plant response rating, Barnyardgrass [8, 13]: 0; Plant response rating, Barnyardgrass [8, 14]: 0; Plant response rating, Barnyardgrass [8, 15]: 0; Plant response rating, Wheat ([9]; 31 g ai/ha, Postemergence): 0; Plant response rating, Wheat ([9]; 125 g ai/ha, postemergence): 0; Plant response rating, Blackgrass ([10]; 31 g ai/ha, Postemergence): 0; Plant response rating, Blackgrass ([10]; 125 g ai/ha, postemergence): 0; Plant response rating, Galium ([11]; 31 g ai/ha, Postemergence): 30; Plant response rating, Galium ([11]; 125 g ai/ha, postemergence): 60
